Assay results taken from patent US20130252935A1, “Monobactams” (PFIZER INC., priority 2010, published 2013).
Converted amounts (≈) assume the structure as drawn.

Tests used:
Type in all cases: cell-based
[1] = system: Pseudomonas aeruginosa UC-12120; experiment: minimum inhibitory concentration (MIC) testing according to CLSI guidelines, Pseudomonas aeruginosa; conditions: UC-12120, wild-type, labeled as 1091-05, overnight incubation, lower of duplicate values; for MIC: Pseudomonas aeruginosa, UC12120, read-out: AB-MBT: Pseudomonas aeruginosa 1091-05: MIC (MstRcn)
Protocol: (§1) In order to assess the compounds biological activity, the in vitro anti-bacterial activity of selected compounds described in the Examples 1-69 was evaluated by minimum inhibitory concentration (MIC) testing according to Clinical and Laboratory Standards Institute (CLSI, formerly NCCLS) guidelines. See: Clinical and Laboratory Standards Institute. Methods for Dilution Antimicrobial Susceptibility Tests for Bacteria that Grow Aerobically; Approved Standard-Eighth Edition. CLSI document M7-A8 [ISBN 1-56238-689-1]. Clinical and Laboratory Standards Institute, 940 West Valley Road, Suite 1400, Wayne, Pa. 19087-1898 USA, 2006; also Clinical and Laboratory Standards Institute. Performance Standards for Antimicrobial Susceptibility Testing; Twentieth Informational Supplement. CLSI document M100-S20 [ISBN1-56238-716-2]. Clinical and Laboratory Standards Institute.
(§2) The MIC determination is a standard laboratory method for evaluating the antibacterial activity of a compound. The MIC represents the lowest drug concentration that inhibits visible growth of bacteria following overnight incubation. […] Typically, the drug concentration range is broken down into 2-fold increments (e.g. 0.06 μg/mL, 0.12 μg/mL. 0.25 μg/mL, 0.50 μg/mL, 1.0 μg/mL, etc.) and the various drug concentrations are all individually incubated overnight with approximately the same number of bacteria. The MIC is then determined by visually inspecting the drug effect at each concentration, and identifying the lowest drug concentration that has inhibited bacterial growth as compared to the drug free control. Typically, bacteria continue to grow at drug concentrations lower than the MIC and don't grow at concentrations at and above the MIC.
(§3) The MIC values described in Table 1 below were derived from assays wherein each test compound was evaluated in duplicate. In cases where the duplicate values varied by 0-2-fold, the lower of the two values was reported below. Generally speaking, if the duplicate values varied by more than 2-fold, the assay was considered non-valid and was repeated until the variation between duplicate runs was ≦2-fold. In line with the CLSI guidelines referred to above, both control organisms and reference compounds were utilized in each MIC assay to provide proper quality control. MIC values generated with these control organisms and reference compounds were required to fall within a defined range for the assay to be considered valid and be included herein. Those skilled in the art will recognize that MIC values can and do vary from experiment to experiment. Generally speaking, it should be recognized that MIC values often vary +/−2-fold from experiment to experiment. While a single MIC is reported for each compound and each microorganism, the reader should not conclude that each compound was only tested once. Several of the compounds were subjected to multiple tests. The data reported in Table 1 is reflective of the compounds relative activity and different MICs may have been generated on these occasions in light with the guidelines described above.
(§4) The following bacterial strains were used in these MIC determinations:
1) Pseudomonas aeruginosa UC-12120: Wild-type, labeled as 1091-05;

[2] = system: Klebsiella pneumoniae 1000-02; experiment: minimum inhibitory concentration (MIC) testing according to CLSI guidelines, Klebsiella pneumoniae; conditions: ciprofloxacin-resistant, ESBL-expressing clinical isolate 1000-02, overnight incubation, lower of duplicate values; for MIC: Klebsiella pneumoniae, read-out: AB-MBT: Klebsiella pneumoniae 1000-02: MIC (MstRcnt)
Protocol: as §1, §2, §3, §4
2) Klebsiella pneumoniae: Ciprofloxacin-resistant isolate, expresses extended-spectrum beta-lactamases (ESBL), clinical isolate, labeled as 1000-02;

[3] = system: Acinetobacter baumannii/haemolyticus AB-3167; experiment: minimum inhibitory concentration (MIC) testing according to CLSI guidelines, Acinetobacter; conditions: multidrug-resistant clinical isolate AB-3167, overnight incubation, lower of duplicate values; for MIC: Acinetobacter baumannii, read-out: AB-MBT: Acinetobacter baumanii AB-3167: MIC (MstRcnt)
Protocol: as §1, §2, §3, §4
3) Acinetobacter baumannii/haemolyticus: Multidrug-resistant clinical isolate, labeled as AB-3167.

| SMILES | MIC [1] | MIC [2] | MIC [3] | AB-MBT: Pseudomonas aeruginosa 1091-05: MIC (MstRcn) [1] | AB-MBT: Klebsiella pneumoniae 1000-02: MIC (MstRcnt) [2] | AB-MBT: Acinetobacter baumanii AB-3167: MIC (MstRcnt) [3] |
| --- | --- | --- | --- | --- | --- | --- |
| CC(C)(O/N=C(\C(=O)N[C@@H]1C(=O)N(S(=O)(=O)[O-])[C@@H]1CNC(=O)c1coc(-c2cc(=O)c(O)cn2O)n1)c1csc(N)n1)C(=O)[O-].[Na+].[Na+] [Example 17, 2-({[(1Z)-1-(2-amino-1,3-thiazol-4-yl)-2-({(2R,3S)-2-[({[2-(1,5-dihydroxy-4-oxo-1,4-dihydropyridin-2-yl)-1,3-oxazol-4-yl]carbonyl}amino)methyl]-4-oxo-1-sulfoazetidin-3-yl}amino)-2-oxoethylidene]amino}oxy)-2-methylpropanoic acid, bis sodium salt] |  |  |  | 0.125 µg/mL | 1.00 µg/mL | 1.00 µg/mL |
| CC(C)(O/N=C(\C(=O)N[C@@H]1C(=O)N(S(=O)(=O)O)[C@@H]1CNC(=O)c1ccnc(-c2cc(=O)c(O)c[nH]2)n1)c1csc(N)n1)C(=O)O [Example 22, 2-({[(1Z)-1-(2-amino-1,3-thiazol-4-yl)-2-({(2R,3S)-2-[({[2-(5-hydroxy-4-oxo-1,4-dihydropyridin-2-yl)pyrimidin-4-yl]carbonyl}amino)methyl]-4-oxo-1-sulfoazetidin-3-yl}amino)-2-oxoethylidene]amino}oxy)-2-methylpropanoic acid] | 4 µg/mL (≈ 6.01 µM) | 32 µg/mL (≈ 48.1 µM) | 16 µg/mL (≈ 24 µM) |  |  |  |
| CC(C)(O/N=C(\C(=O)N[C@@H]1C(=O)N(S(=O)(=O)O)[C@@H]1CNC(=O)c1cccc(S(=O)(=O)NCc2cc(=O)c(O)cn2O)c1)c1csc(N)n1)C(=O)O [Example 40, 2-({[(1Z)-1-(2-amino-1,3-thiazol-4-yl)-2-{[(2R,3S)-2-({[3-({[(1,5-dihydroxy-4-oxo-1,4-dihydropyridin-2-yl)methyl]amino}sulfonyl)benzoyl]amino}methyl)-4-oxo-1-sulfoazetidin-3-yl]amino}-2-oxoethylidene]amino}oxy)-2-methylpropanoic acid] | 0.25 µg/mL (≈ 0.324 µM) | 0.5 µg/mL (≈ 0.647 µM) | 0.25 µg/mL (≈ 0.324 µM) |  |  |  |
| CC(C)(O/N=C(\C(=O)N[C@@H]1C(=O)N(S(=O)(=O)O)[C@@H]1CNC(=O)OCc1cc(-c2cc(=O)c(O)cn2O)no1)c1csc(N)n1)C(=O)O [Example 38, 2-(5-{[({[(2R,3S)-3-{[(2Z)-2-(2-amino-1,3-thiazol-4-yl)-2-{[(2-carboxypropan-2-yl)oxy]imino}acetyl]amino}-4-oxo-1-sulfoazetidin-2-yl]methyl}carbamoyl)oxy]methyl}isoxazol-3-yl)-1,5-dihydroxy-4-oxo-1,4-dihydropyridinium] |  |  |  | 2.0 µg/mL | 0.5 µg/mL | 0.5 µg/mL |
| CC(C)(O/N=C(\C(=O)N[C@@H]1C(=O)N(S(=O)(=O)O)[C@@H]1CNC(=O)C1CN(C(=O)c2cc(=O)c(O)c[nH]2)C1)c1csc(N)n1)C(=O)O [Example 8, 2-({[(1Z)-1-(2-amino-1,3-thiazol-4-yl)-2-{[(2R,3S)-2-{[({1-[(5-hydroxy-4-oxo-1,4-dihydropyridin-2-yl)carbonyl]azetidin-3-yl}carbonyl)amino]methyl}-4-oxo-1-sulfoazetidin-3-yl]amino}-2-oxoethylidene]amino}oxy)-2-methylpropanoic acid] | 1 µg/mL (≈ 1.49 µM) | 4 µg/mL (≈ 5.96 µM) | 1 µg/mL (≈ 1.49 µM) |  |  |  |

More lines, in order of falling MIC [1], values ahead:

| MIC [1] | MIC [2] | SMILES | MIC [3] | AB-MBT: Pseudomonas aeruginosa 1091-05: MIC (MstRcn) [1] | AB-MBT: Klebsiella pneumoniae 1000-02: MIC (MstRcnt) [2] | AB-MBT: Acinetobacter baumanii AB-3167: MIC (MstRcnt) [3] |
| --- | --- | --- | --- | --- | --- | --- |
| 4 µg/mL (≈ 5.54 µM) | 4 µg/mL (≈ 5.54 µM) | CC(C)(O/N=C(\C(=O)N[C@@H]1C(=O)N(S(=O)(=O)O)[C@@H]1CNC(=O)c1cccc(NC(=O)c2cc(=O)c(O)cn2O)c1)c1csc(N)n1)C(=O)O [Example 67, 2-({[(1Z)-1-(2-amino-1,3-thiazol-4-yl)-2-{[(2R,3S)-2-{[(3-{[(1,5-dihydroxy-4-oxo-1,4-dihydropyridin-2-yl)carbonyl]amino}benzoyl)amino]methyl}-4-oxo-1-sulfoazetidin-3-yl]amino}-2-oxoethylidene]amino}oxy)-2-methylpropanoic acid] | 2 µg/mL (≈ 2.77 µM) |  |  |  |
| 1 µg/mL (≈ 1.49 µM) | 0.5 µg/mL (≈ 0.743 µM) | Nc1nc(/C(=N/OC2(C(=O)O)CCCCC2)C(=O)N[C@@H]2C(=O)N(S(=O)(=O)O)[C@@H]2CNC(=O)NCc2cc(=O)c(O)cn2O)cs1 [Example 28, 1-({[(1Z)-1-(2-amino-1,3-thiazol-4-yl)-2-({(2R,3S)-2-[({[(1,5-dihydroxy-4-oxo-1,4-dihydropyridin-2-yl)methyl]carbamoyl}amino)methyl]-4-oxo-1-sulfoazetidin-3-yl}amino)-2-oxoethylidene]amino}oxy)cyclohexanecarboxylic acid] | 1 µg/mL (≈ 1.49 µM) |  |  |  |
| 0.5 µg/mL (≈ 0.794 µM) | 0.125 µg/mL (≈ 0.199 µM) | Nc1nc(/C(=N/OC2(C(=O)O)CCCC2)C(=O)N[C@@H]2C(=O)N(S(=O)(=O)O)[C@@H]2CNC(=O)c2cc(=O)c(O)cn2O)cs1 [Example 66, 1-({[(1Z)-1-(2-amino-1,3-thiazol-4-yl)-2-{[(2R,3S)-2-({[(1,5-dihydroxy-4-oxo-1,4-dihydropyridin-2-yl)carbonyl]amino}methyl)-4-oxo-1-sulfoazetidin-3-yl]amino}-2-oxoethylidene]amino}oxy)cyclopentanecarboxylic acid] | 0.5 µg/mL (≈ 0.794 µM) |  |  |  |
| 0.5 µg/mL (≈ 0.679 µM) | 4 µg/mL (≈ 5.43 µM) | CC(C)(O/N=C(\C(=O)N[C@@H]1C(=O)N(S(=O)(=O)O)[C@@H]1CNC(=O)Cc1ccc(NC(=O)c2cc(=O)c(O)cn2O)cc1)c1csc(N)n1)C(=O)O [Example 45, 2-({[(1Z)-1-(2-amino-1,3-thiazol-4-yl)-2-{[(2R,3S)-2-({[(4-{[(1,5-dihydroxy-4-oxo-1,4-dihydropyridin-2-yl)carbonyl]amino}phenyl)acetyl]amino}methyl)-4-oxo-1-sulfoazetidin-3-yl]amino}-2-oxoethylidene]amino}oxy)-2-methylpropanoic acid] | 0.5 µg/mL (≈ 0.679 µM) |  |  |  |
| 0.25 µg/mL (≈ 0.339 µM) | 0.25 µg/mL (≈ 0.339 µM) | CC(C)(O/N=C(\C(=O)N[C@@H]1C(=O)N(S(=O)(=O)O)[C@@H]1CNC(=O)c1cccc(C(=O)NCc2cc(=O)c(O)cn2O)c1)c1csc(N)n1)C(=O)O [Example 44, 2-({[(1Z)-1-(2-amino-1,3-thiazol-4-yl)-2-{[(2R,3S)-2-{[(3-{[(1,5-dihydroxy-4-oxo-1,4-dihydropyridin-2-yl)methyl]carbamoyl}benzoyl)amino]methyl}-4-oxo-1-sulfoazetidin-3-yl]amino}-2-oxoethylidene]amino}oxy)-2-methylpropanoic acid] | 0.25 µg/mL (≈ 0.339 µM) |  |  |  |
| 0.125 µg/mL (≈ 0.182 µM) | 0.5 µg/mL (≈ 0.726 µM) | CC(C)(O/N=C(\C(=O)N[C@@H]1C(=O)N(S(=O)(=O)O)[C@@H]1CNC(=O)CCC(=O)NCc1cc(=O)c(O)cn1O)c1csc(N)n1)C(=O)O [Example 42, 2-({[(1Z)-1-(2-amino-1,3-thiazol-4-yl)-2-{[(2R,3S)-2-{[(4-{[(1,5-dihydroxy-4-oxo-1,4-dihydropyridin-2-yl)methyl]amino}-4-oxobutanoyl)amino]methyl}-4-oxo-1-sulfoazetidin-3-yl]amino}-2-oxoethylidene]amino}oxy)-2-methylpropanoic acid] | 0.125 µg/mL (≈ 0.182 µM) |  |  |  |
| 0.125 µg/mL (≈ 0.178 µM) | 0.5 µg/mL (≈ 0.714 µM) | Nc1nc(/C(=N/OC2(C(=O)O)CCC2)C(=O)N[C@@H]2C(=O)N(S(=O)(=O)O)[C@@H]2CNC(=O)CCC(=O)NCc2cc(=O)c(O)cn2O)cs1 [Example 60, 1-({[(1Z)-1-(2-amino-1,3-thiazol-4-yl)-2-{[(2R,3S)-2-{[(4-{[(1,5-dihydroxy-4-oxo-1,4-dihydropyridin-2-yl)methyl]amino}-4-oxobutanoyl)amino]methyl}-4-oxo-1-sulfoazetidin-3-yl]amino}-2-oxoethylidene]amino}oxy)cyclobutanecarboxylic acid] | 0.25 µg/mL (≈ 0.357 µM) |  |  |  |
